{"source": "patent US11976083B2", "about": "“Inhibitors of peptidylarginine deiminases” (Gilead Sciences, Inc., priority 2020, dated 2024)", "target": "T1, human PAD4 (Homo sapiens, UniProt Q9UM07)", "T1 construct": "human PAD4 (NM_012387), A2-P663, was PCR amplified; His-SUMO (N, cleaved yes); made in house; host or cells: E. coli BL21(DE3)", "T1 sequence (Q9UM07 2-663)": "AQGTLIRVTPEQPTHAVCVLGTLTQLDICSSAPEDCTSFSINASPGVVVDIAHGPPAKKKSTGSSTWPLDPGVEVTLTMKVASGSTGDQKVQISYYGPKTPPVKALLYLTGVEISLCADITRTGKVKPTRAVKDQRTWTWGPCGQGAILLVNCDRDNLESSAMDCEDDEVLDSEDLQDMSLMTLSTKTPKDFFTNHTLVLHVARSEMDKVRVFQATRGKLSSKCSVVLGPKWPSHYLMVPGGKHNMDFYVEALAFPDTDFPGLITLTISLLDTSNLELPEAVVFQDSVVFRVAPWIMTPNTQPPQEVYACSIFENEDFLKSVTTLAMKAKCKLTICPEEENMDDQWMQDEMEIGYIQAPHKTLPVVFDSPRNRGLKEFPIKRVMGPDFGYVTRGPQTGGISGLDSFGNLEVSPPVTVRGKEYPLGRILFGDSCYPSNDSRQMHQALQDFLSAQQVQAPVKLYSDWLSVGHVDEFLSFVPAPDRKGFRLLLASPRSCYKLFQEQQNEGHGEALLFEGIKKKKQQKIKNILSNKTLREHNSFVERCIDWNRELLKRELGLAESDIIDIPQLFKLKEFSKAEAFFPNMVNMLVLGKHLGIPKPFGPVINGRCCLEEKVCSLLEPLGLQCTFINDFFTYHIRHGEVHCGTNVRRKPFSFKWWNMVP", "assay": "In vitro PAD4 BAEE biochemical assay", "details": "BAEE substrate 3 mM, 5 nM PAD4, 2 mM calcium chloride; geometric mean of multiple experiments", "procedure,_shortened": "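Recombinant human PAD4 (5 nM final) with 2 mM CaCl2 was preincubated with compound 30 min at 25 °C in MOPS buffer pH 7.6, then reacted with 3 mM BAEE for 2 h at 25 °C. After EDTA stop, released ammonia was detected by o-phthalaldehyde/DTT fluorescence (ex 405/em 535 nm); IC50 from four-parameter fit, geometric mean.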"}
{"smiles": "CO[C@@H]1CCN(C(=O)c2cc(Cl)c3c(c2)nc(-c2cc4ccc5nc4n2CC(F)(F)CCC[C@@H]2C[C@H]2C(=O)N[C@@H]5C)n3C2CC2)C[C@@H]1N", "note": "[Example 806, (2~{R},5~{R},7~{R})-14-[5-[(3~{S},4~{R})-3-amino-4-methoxy-piperidine-1-carbonyl]-7-chloro-1-cyclopropyl-benzimidazol-2-yl]-11,11-difluoro-2-methyl-3,13,19-triazatetracyclo[11.5.2.0^ {5,7}.0^{16,20}] icosa-1(18),14,16,19-tetraen-4-one]", "values": [{"measurement": "IC50", "value": 42, "unit": "nM"}]}
{"smiles": "C[C@H]1NC(=O)c2ccc(Cl)nc2CCCCCn2c(-c3nc4cc(C(=O)N5C[C@H](N)CC[C@@H]5C)cc(F)c4n3C3CC3)cc3ccc1nc32", "note": "[Example 807, (2~{R})-17-[5-[(2~{S},5~{R})-5-amino-2-methyl-piperidine-1-carbonyl]-1-cyclopropyl-7-fluoro-benzimidazol-2-yl]-8-chloro-2-methyl-3,9,16,22-tetrazatetracyclo[14.5.2.0^ {5,10}.0^{19,23}]tricosa-1(21),5(10),6,8,17,19,22-heptaen-4-one]", "values": [{"measurement": "IC50", "value": 31, "unit": "nM"}]}
{"smiles": "C[C@H]1NC(=O)c2ccc(Cl)nc2CCCCCn2c(-c3nc4cc(C(=O)N5[C@H]6CC[C@@H]5[C@H](N)C6)cc(F)c4n3C3CC3)cc3ccc1nc32", "note": "[Example 808, (2~{R})-17-[5-[(1~{R},2~{R},4~ {S})-2-amino-7-azabicyclo [2.2.1]heptane-7-carbonyl]-1-cyclopropyl-7-fluoro-benzimidazol-2-yl]-8-chloro-2-methyl-3,9,16,22-tetrazatetracyclo[14.5.2.0^ {5,10}.0^{19,23}]tricosa-1(21),5(10),6,8,17,19,22-heptaen-4-one]", "values": [{"measurement": "IC50", "value": 15, "unit": "nM"}]}
{"smiles": "COc1cc(C(=O)N2C[C@H](N)[C@@H]3CC[C@H]2C3)cc2nc(-c3cc4ccc5nc4n3CCCCCc3nc(Cl)ccc3C(=O)N[C@@H]5C)n(C3CC3)c12", "note": "[Example 809, (2˜{R})-17-[5-[(1˜{S},4˜{R},5˜{R})-4-amino-2-azabicyclo[3.2.1]octane-2-carbonyl]-1-cyclopropyl-7-methoxy-benzimidazol-2-yl]-8-chloro-2-methyl-3,9,16,22-tetrazatetracyclo[14.5.2.0^{5,10}.0^{19,23}]tricosa-1(21),5(10),6,8,17,19,22-heptaen-4-one]", "values": [{"measurement": "IC50", "value": 39, "unit": "nM"}]}
{"smiles": "C[C@H]1NC(=O)c2cnc(Cl)cc2CCCCCn2c(-c3nc4cc(C(=O)N5C[C@H](N)[C@@H]6CC[C@H]5C6)cc(F)c4n3C3CC3)cc3ccc1nc32", "note": "[Example 810, (2~{R})-17-[5-[(1~{S),4~{R},5~ {R})-4-amino-2-azabicyclo [3.2.1]octane-2-carbonyl]-1-cyclopropyl-7-fluoro-benzimidazol-2-yl]-8-chloro-2-methyl-3,7,16,22-tetrazatetracyclo[14.5.2.0^ {5,10}.0^{19,23}] tricosa-1(21),5(10),6,8,17,19, 22-heptaen-4-one]", "values": [{"measurement": "IC50", "value": 25, "unit": "nM"}]}
{"smiles": "COc1cc(C(=O)N2C[C@H](N)[C@@H]3CC[C@H]2C3)cc2nc(-c3cc4ccc5nc4n3CCCCCc3nc(Cl)ccc3C(=O)N[C@@H]5C)c(C)n12", "note": "[Example 811, (2~{R})-17-[7-[(1~{S),4~ {R},5~{R})-4-amino-2-azabicyclo[3.2.1]octane-2-carbonyl]-5-methoxy-3-methyl-imidazo[1,2-a]pyridin-2-yl]-8-chloro-2-methyl-3,9,16,22-tetrazatetracyclo[14.5.2.0^ {5,10).0^{19,23}]tricosa-1(21),5(10),6,8,17,19,22-heptaen-4-one]", "values": [{"measurement": "IC50", "value": 26, "unit": "nM"}]}
{"smiles": "C[C@H]1NC(=O)c2ccc(Cl)nc2CCCCCn2c(-c3nc4cc(C(=O)N5C[C@H](N)[C@@H]6CC[C@H]5C6)cc(Cl)c4n3C3CC3)cc3ccc1nc32", "note": "[Example 812, (2~{R})-17-[5-[(1~{S},4~{R}, 5~{R})-4-amino-2-azabicyclo [3.2.1]octane-2-carbonyl]-7-chloro-1-cyclopropyl-benzimidazol-2-yl]-8-chloro-2-methyl-3,9,16,22-tetrazatetracyclo[14.5.2.0^ {5,10}.0^{19,23}]tricosa-1(21),5(10),6,8,17,19,22-heptaen-4-one]", "values": [{"measurement": "IC50", "value": 31, "unit": "nM"}]}
{"smiles": "C[C@H]1NC(=O)c2ccc(C3CC3)nc2CCCCCn2c(-c3nc4cc(C(=O)N5C[C@H](N)[C@@H]6CC[C@H]5C6)cc(F)c4n3C3CC3)cc3ccc1nc32", "note": "[Example 813, (2˜{R})-17-[5-[(1˜{S},4˜{R},5˜{R})-4-amino-2-azabicyclo[3.2.1]octane-2-carbonyl]-1-cyclopropyl-7-fluoro-benzimidazol-2-yl]-8-cyclopropyl-2-methyl-3,9,16,22-tetrazatetracyclo[14.5.2.0^{5,10}.0^{19,23}]tricosa-1(21),5(10),6,8,17,19,22-heptaen-4-one]", "values": [{"measurement": "IC50", "value": 26, "unit": "nM"}]}
{"smiles": "C[C@H]1NC(=O)c2ccc(Cl)nc2CCCC(F)(F)Cn2c(-c3nc4cc(C(=O)N5C[C@H](N)[C@@H]6CC[C@H]5C6)cc(F)c4n3C3CC3)cc3ccc1nc32", "note": "[Example 814, (2~{R})-17-[5-[(1~{S), 4~{R},5~{R})-4-amino-2-azabicyclo[3.2.1]octane-2-carbonyl]-1-cyclopropyl-7-fluoro-benzimidazol-2-yl]-8-chloro-14,14-difluoro-2-methyl-3,9,16,22-tetrazatetracyclo[14.5.2.0^ {5,10).0^{19,23}]tricosa-1(21),5(10),6,8,17,19,22-heptaen-4-one]", "values": [{"measurement": "IC50", "value": 38, "unit": "nM"}]}
{"smiles": "COc1cc(C(=O)N2C[C@H](N)[C@@H]3CC[C@H]2C3)cc2nc(-c3cc4ccc5nc4n3CCCCC[C@]3(F)C[C@H]3C(=O)N[C@@H]5C)c(C)n12", "note": "[Example 815, (2~{R},5~{S},7~{S})-14-[7-[(1~{S},4~{R},5~{R})-4-amino-2-azabicyclo[3.2.1]octane-2-carbonyl]-5-methoxy-3-methyl-imidazo[1,2-a]pyridin-2-yl]-7-fluoro-2-methyl-3,13,19-triazatetracyclo [11.5.2.0^{5,7}.0^{16,20}] icosa-1(18),14,16,19-tetraen-4-one]", "values": [{"measurement": "IC50", "value": 26, "unit": "nM"}]}
{"smiles": "COc1cc(C(=O)N2C[C@H](N)[C@@H]3CC[C@H]2C3)cc2nc(-c3cc4ccc5nc4n3CCCCC[C@]3(F)C[C@H]3C(=O)N[C@@H]5C)n(C3CC3)c12", "note": "[Example 816, (2~{R},5~{S},7~{S})-14-[5-[(1~{S},4~{R},5~{R})-4-amino-2-azabicyclo[3.2.1]octane-2-carbonyl]-1-cyclopropyl-7-methoxy-benzimidazol-2-yl]-7-fluoro-2-methyl-3,13,19-triazatetracyclo[11.5.2.0^ {5,7}.0^{16,20}]icosa-1 (18),14,16,19-tetraen-4-one]", "values": [{"measurement": "IC50", "value": 19, "unit": "nM"}]}
{"smiles": "COCCn1c(-c2cc3ccc4nc3n2CCCCC[C@@H]2C[C@H]2C(=O)N[C@@H]4C)nc2cc(C(=O)N3C[C@H](N)[C@@H]4CC[C@H]3C4)cc(OC)c21", "note": "[Example 817, (2~{R},5~{R},7~{R})-14-[5-[(1~{S},4~{R},5~{R})-4-amino-2-[3.2.1]octane-2-carbonyl]-7-methoxy-1-(2-methoxyethyl)benzimidazol-2-yl]-2-methyl-3,13,19-triazatetracyclo[11.5.2.0^ {5,7}.0^{16,20}]icosa-1(18),14,16,19-tetraen-4-one]", "values": [{"measurement": "IC50", "value": 13, "unit": "nM"}]}
{"smiles": "COc1cc(C(=O)N2C[C@H](N)[C@@H]3CC[C@H]2C3)cc2nc(-c3cc4ccc5nc4n3CCCCCc3cc(Cl)ncc3C(=O)N[C@@H]5C)n(C3CC3)c12", "note": "[Example 818, (2~{R})-17-[5-[(1~{S},4~{R}, 5~{R})-4-amino-2-azabicyclo[3.2.1]octane-2-carbonyl]-1-cyclopropyl-7-methoxy-benzimidazol-2-yl]-8-chloro-2-methyl-3,7,16,22-tetrazatetracyclo[14.5.2.0^ {5,10).0^{19,23}]tricosa-1(21),5(10),6,8,17,19,22-heptaen-4-one]", "values": [{"measurement": "IC50", "value": 12, "unit": "nM"}]}
{"smiles": "COc1cc(C(=O)N2C[C@H](N)[C@@H]3CC[C@H]2C3)cc2nc(-c3cc4ccc5nc4n3CCCCCc3nc(C(F)F)ccc3C(=O)N[C@@H]5C)n(C3CC3)c12", "note": "[Example 819, (2~{R})-17-[5-[(1~{S},4~{R}, 5~{R})-4-amino-2-azabicyclo [3.2.1]octane-2-carbonyl]-1-cyclopropyl-7-methoxy-benzimidazol-2-yl]-8-(difluoromethyl)-2-methyl-3,9,16,22-tetrazatetracyclo[14.5.2.0^ {5,10}.0^{19,23}] tricosa-1(21),5(10),6,8,17, 19,22-heptaen-4-one]", "values": [{"measurement": "IC50", "value": 10, "unit": "nM"}]}
{"smiles": "C[C@H]1NC(=O)c2ccc(C#Cc3ccccc3)nc2CCCCCn2c(-c3nc4cc(C(=O)N5C[C@H](N)[C@@H]6CC[C@H]5C6)cc(F)c4n3C3CC3)cc3ccc1nc32", "note": "[Example 820, (2˜{R})-17-[5-[(1˜{S},4˜{R},5˜{R})-4-amino-2-azabicyclo[3.2.1]octane-2-carbonyl]-1-cyclopropyl-7-fluoro-benzimidazol-2-yl]-2-methyl-8-(2-phenylethynyl)-3,9,16,22-tetrazatetracyclo[14.5.2.0^{5,10}.0^{19,23}]tricosa-1(21),5(10),6,8,17,19,22-heptaen-4-one]", "values": [{"measurement": "IC50", "value": 168, "unit": "nM"}]}
{"smiles": "COc1cc(C(=O)N2CC[C@@H](OC)[C@@H](N)C2)cc2nc(-c3cc4ccc5nc4n3CC(F)(F)CCCCC3(CC(F)(F)C3)C(=O)N[C@@H]5C)n(C)c12", "note": "[Example 821, (11~{R})-17-[5-[(3~{S),4~ {R})-3-amino-4-methoxy-piperidine-1-carbonyl]-7-methoxy-1-methyl-benzimidazol-2-yl]-1′,1′,3,3-tetrafluoro-11-methyl-spiro[1,10,19-triazatricyclo[10.5.2.0^ {15,18}]nonadeca-12 (19),13,15(18),16-tetraene-8,3′-cyclobutane]-9-one]", "values": [{"measurement": "IC50", "value": 102, "unit": "nM"}]}
{"smiles": "COc1cc(C(=O)N2CC[C@@H](OC(F)F)[C@@H](N)C2)cc2nc(-c3cc4ccc5nc4n3CC(F)(F)CCCCC3(CC(F)(F)C3)C(=O)N[C@@H]5C)n(C)c12", "note": "[Example 822, (11~{R})-17-[5-[(3~{S},4~ {R})-3-amino-4-(difluoromethoxy)piperidine-1-carbonyl]-7-methoxy-1-methyl-benzimidazol-2-yl]-1′,1′,3,3-tetrafluoro-11-methyl-spiro [1,10,19-triazatricyclo [10.5.2.0^{15,18}]nonadeca-12(19),13,15(18),16-tetraene-8,3′-cyclobutane]-9-one]", "values": [{"measurement": "IC50", "value": 205, "unit": "nM"}]}
